{"source": "paper PMC4414715", "about": "(Chemico-biological interactions, 2014)", "key": {"ALDH4A1 [1]": {"biological_target": "T1, ALDH4A1 (Homo sapiens, UniProt P30038)", "T1 sequence (P30038 25-563)": "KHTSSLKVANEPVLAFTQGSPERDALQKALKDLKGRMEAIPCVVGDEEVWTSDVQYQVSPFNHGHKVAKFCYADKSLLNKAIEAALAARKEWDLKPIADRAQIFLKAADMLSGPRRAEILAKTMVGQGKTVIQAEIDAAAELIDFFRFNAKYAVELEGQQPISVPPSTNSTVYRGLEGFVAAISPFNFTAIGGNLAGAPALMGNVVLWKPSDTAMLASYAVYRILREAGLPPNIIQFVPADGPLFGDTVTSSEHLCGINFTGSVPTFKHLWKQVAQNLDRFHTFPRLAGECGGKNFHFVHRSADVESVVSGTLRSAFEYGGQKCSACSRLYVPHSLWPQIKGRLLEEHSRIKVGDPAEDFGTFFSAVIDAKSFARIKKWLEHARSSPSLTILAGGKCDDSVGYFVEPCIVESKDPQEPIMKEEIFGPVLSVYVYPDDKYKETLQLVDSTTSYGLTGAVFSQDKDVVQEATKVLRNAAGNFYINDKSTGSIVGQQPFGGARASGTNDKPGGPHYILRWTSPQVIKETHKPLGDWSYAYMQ", "assay": "DEAB inhibition and IC50 determination"}, "ALDH1A2 [2]": {"biological_target": "T2, ALDH1A2 (Homo sapiens, UniProt O94788)", "T2 sequence (O94788 1-518)": "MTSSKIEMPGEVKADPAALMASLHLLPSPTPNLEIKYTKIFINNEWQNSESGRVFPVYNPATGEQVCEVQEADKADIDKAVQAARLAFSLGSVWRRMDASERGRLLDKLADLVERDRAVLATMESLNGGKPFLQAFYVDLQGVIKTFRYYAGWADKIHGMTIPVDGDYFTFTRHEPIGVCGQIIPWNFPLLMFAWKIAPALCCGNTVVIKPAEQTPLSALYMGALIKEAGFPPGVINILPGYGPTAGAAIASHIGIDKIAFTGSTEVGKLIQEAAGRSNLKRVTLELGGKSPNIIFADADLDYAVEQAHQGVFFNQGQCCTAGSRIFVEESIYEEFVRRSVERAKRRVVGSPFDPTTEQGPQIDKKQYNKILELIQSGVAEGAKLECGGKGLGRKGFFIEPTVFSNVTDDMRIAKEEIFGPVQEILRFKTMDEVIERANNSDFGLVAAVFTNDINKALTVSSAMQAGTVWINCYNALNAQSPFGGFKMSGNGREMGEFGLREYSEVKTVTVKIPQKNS", "assay": "Wavelength scans to monitor DEAB oxidation", "type": "biochemical", "details": "DEAB as substrate of ALDH1A2"}, "ALDH1A2 [3]": {"biological_target": "T2, ALDH1A2", "assay": "DEAB inhibition and IC50 determination", "type": "biochemical"}, "ALDH1L1 [4]": {"biological_target": "T3, ALDH1L1 (Rattus norvegicus, UniProt P28037)", "T3 sequence (P28037 417-902 limits assumed)": "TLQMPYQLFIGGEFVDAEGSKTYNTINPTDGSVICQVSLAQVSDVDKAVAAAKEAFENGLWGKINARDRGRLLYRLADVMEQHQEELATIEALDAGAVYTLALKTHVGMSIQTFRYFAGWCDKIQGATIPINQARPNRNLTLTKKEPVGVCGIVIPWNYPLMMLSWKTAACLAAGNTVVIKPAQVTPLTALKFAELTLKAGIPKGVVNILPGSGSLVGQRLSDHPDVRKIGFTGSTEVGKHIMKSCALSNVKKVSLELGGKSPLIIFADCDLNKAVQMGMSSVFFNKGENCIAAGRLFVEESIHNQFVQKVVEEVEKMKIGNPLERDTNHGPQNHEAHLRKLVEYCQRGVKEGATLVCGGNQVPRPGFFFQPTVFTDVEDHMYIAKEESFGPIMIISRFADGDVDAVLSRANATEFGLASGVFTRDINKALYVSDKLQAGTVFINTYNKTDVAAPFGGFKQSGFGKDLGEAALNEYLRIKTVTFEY", "assay": "Wavelength scans to monitor DEAB oxidation", "type": "biochemical", "details": "DEAB as substrate of ALDH1L1"}, "ALDH1A2 [5]": {"biological_target": "T2, ALDH1A2", "assay": "Q-TOF mass spectrometry of enzyme modification by DEAB", "type": "binding", "details": "5.0 μM ALDH1A2, 10 μM DEAB, without NAD+, 1 h"}, "ALDH1A3 [6]": {"biological_target": "T4, ALDH1A3 (Homo sapiens, UniProt P47895)", "T4 sequence (P47895 1-512)": "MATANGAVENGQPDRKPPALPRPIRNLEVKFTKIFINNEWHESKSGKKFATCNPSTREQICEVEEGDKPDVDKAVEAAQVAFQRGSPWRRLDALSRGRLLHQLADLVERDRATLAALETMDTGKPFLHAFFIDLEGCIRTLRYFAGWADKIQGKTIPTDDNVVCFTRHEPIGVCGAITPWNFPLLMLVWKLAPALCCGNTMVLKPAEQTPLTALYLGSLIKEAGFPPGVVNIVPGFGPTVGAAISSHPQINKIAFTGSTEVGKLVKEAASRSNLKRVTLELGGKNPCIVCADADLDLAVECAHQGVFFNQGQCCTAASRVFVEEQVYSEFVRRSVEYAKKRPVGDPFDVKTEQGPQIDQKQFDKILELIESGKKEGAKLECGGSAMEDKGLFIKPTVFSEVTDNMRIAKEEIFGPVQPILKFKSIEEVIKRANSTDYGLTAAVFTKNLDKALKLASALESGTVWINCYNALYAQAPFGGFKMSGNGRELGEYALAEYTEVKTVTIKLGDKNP", "assay": "Wavelength scans to monitor DEAB oxidation", "type": "biochemical", "details": "DEAB as substrate of ALDH1A3"}, "ALDH1L1 [7]": {"biological_target": "T3, ALDH1L1", "assay": "DEAB inhibition and IC50 determination"}, "ALDH1A2 [8]": {"biological_target": "T2, ALDH1A2", "assay": "Effect of dialysis on DEAB-induced inhibition", "type": "biochemical"}, "ALDH3A1 [9]": {"biological_target": "T5, ALDH3A1 (Homo sapiens, UniProt P30838)", "T5 sequence (P30838 1-453)": "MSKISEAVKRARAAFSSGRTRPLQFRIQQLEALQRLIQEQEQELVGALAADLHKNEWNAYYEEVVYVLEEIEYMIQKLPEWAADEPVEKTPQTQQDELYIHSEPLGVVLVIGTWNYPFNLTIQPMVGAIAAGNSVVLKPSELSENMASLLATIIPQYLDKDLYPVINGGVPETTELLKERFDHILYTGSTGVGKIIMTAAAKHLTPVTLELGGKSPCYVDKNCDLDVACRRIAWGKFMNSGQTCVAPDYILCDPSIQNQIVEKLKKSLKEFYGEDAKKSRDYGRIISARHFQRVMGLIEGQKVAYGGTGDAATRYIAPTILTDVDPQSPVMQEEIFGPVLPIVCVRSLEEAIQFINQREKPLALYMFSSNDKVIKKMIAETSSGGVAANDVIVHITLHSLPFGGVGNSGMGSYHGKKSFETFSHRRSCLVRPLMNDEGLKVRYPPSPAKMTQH", "assay": "Wavelength scans to monitor DEAB oxidation", "type": "biochemical", "details": "DEAB as substrate of ALDH3A1"}, "ALDH1B1 [10]": {"biological_target": "T6, ALDH1B1 (Homo sapiens, UniProt P30837)", "T6 sequence (P30837 18-517)": "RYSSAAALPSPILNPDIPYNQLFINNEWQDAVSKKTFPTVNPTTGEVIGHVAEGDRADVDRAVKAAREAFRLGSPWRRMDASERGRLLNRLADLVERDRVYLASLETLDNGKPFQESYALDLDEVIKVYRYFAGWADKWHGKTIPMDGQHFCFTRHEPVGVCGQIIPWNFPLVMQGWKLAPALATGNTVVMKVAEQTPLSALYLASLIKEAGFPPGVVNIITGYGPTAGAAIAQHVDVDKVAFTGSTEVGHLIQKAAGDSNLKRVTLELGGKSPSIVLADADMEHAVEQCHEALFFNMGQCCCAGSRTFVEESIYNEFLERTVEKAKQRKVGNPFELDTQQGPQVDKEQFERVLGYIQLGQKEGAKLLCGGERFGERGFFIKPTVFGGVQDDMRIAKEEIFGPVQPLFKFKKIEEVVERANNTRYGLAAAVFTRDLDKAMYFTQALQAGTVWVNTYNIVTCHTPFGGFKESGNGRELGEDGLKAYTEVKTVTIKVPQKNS", "assay": "Wavelength scans to monitor DEAB oxidation", "type": "biochemical", "details": "DEAB as substrate of ALDH1B1"}, "ALDH3A1 [11]": {"biological_target": "T5, ALDH3A1", "assay": "Enzyme kinetics with DEAB as a substrate", "details": "ALDH3A1 oxidation of the substrate"}, "ALDH4A1 [12]": {"biological_target": "T1, ALDH4A1", "assay": "Wavelength scans to monitor DEAB oxidation", "type": "biochemical", "details": "DEAB as substrate of ALDH4A1"}, "ALDH1B1 [13]": {"biological_target": "T6, ALDH1B1", "assay": "DEAB inhibition and IC50 determination", "type": "biochemical"}, "ALDH5A1 [14]": {"biological_target": "T7, ALDH5A1 (Homo sapiens, UniProt P51649)", "T7 sequence (P51649 48-535)": "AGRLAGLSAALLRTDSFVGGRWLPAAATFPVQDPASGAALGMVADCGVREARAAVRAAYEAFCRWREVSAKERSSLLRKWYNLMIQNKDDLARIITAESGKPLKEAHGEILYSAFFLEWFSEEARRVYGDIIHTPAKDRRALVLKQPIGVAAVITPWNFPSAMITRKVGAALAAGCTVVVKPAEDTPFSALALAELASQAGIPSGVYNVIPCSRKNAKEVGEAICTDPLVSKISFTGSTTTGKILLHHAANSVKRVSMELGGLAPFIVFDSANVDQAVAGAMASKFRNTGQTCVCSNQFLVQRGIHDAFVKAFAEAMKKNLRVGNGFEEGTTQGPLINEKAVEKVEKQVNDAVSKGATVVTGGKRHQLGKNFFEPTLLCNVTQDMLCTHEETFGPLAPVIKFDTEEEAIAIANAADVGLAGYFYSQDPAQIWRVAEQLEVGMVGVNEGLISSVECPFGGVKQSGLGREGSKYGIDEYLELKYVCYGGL", "assay": "DEAB inhibition and IC50 determination"}, "ALDH5A1 [15]": {"biological_target": "T7, ALDH5A1", "assay": "Wavelength scans to monitor DEAB oxidation", "type": "biochemical", "details": "DEAB as substrate of ALDH5A1"}, "ALDH1A2 [16]": {"biological_target": "T2, ALDH1A2", "assay": "Kinetics of irreversible", "type": "biochemical"}, "ALDH1A3 [17]": {"biological_target": "T4, ALDH1A3", "assay": "DEAB inhibition and IC50 determination", "type": "biochemical"}}}
{"compound": "CCN(CC)c1ccc(C=O)cc1", "note": "[DEAB]", "values": [{"measurement": "IC50", "setting": "ALDH4A1 [1]", "value": "> 20", "unit": "µM"}, {"measurement": "Substrate", "setting": "ALDH1A2 [2]", "value": "No"}, {"measurement": "IC50", "setting": "ALDH1A2 [3]", "value": "1.2 ± 0.1", "unit": "µM"}, {"measurement": "Substrate", "setting": "ALDH1L1 [4]", "value": "No"}, {"measurement": "fraction of enzyme with DEAB bound", "setting": "ALDH1A2 [5]", "value": "approximately one-third"}, {"measurement": "Substrate", "setting": "ALDH1A3 [6]", "value": "Yes (slow)"}, {"measurement": "IC50", "setting": "ALDH1L1 [7]", "value": "> 20", "unit": "µM"}, {"measurement": "activity at 100 µM", "setting": "ALDH1A2 [8]; 0.5 h, pH 7.5, read-out: activity recovered after dialysis", "value": 75, "unit": "%"}, {"measurement": "recovery of enzymatic activity after dialysis", "setting": "ALDH1A2 [8]; ALDH1A2, pre-incubated with DEAB and NAD+, dialyzed 4 h", "value": "neither the ALDH2 nor the ALDH1A2 samples regained enzymatic activity"}, {"measurement": "Substrate", "setting": "ALDH3A1 [9]", "value": "Yes"}, {"measurement": "Substrate", "setting": "ALDH1B1 [10]", "value": "Yes (slow)"}, {"measurement": "Km", "setting": "ALDH3A1 [11]", "value": "5.6 ± 0.7", "unit": "µM"}, {"measurement": "Substrate", "setting": "ALDH4A1 [12]", "value": "No"}, {"measurement": "IC50", "setting": "ALDH1B1 [13]", "value": "1.2 ± 0.1", "unit": "µM"}, {"measurement": "IC50", "setting": "ALDH5A1 [14]", "value": "13 ± 0.5", "unit": "µM"}, {"measurement": "Substrate", "setting": "ALDH5A1 [15]", "value": "Yes (slow)"}, {"measurement": "Mode of inhibition", "setting": "ALDH1A2 [16]", "value": "Covalent inhibitor"}, {"measurement": "IC50", "setting": "ALDH1A3 [17]", "value": "3 ± 0.3", "unit": "µM"}]}
